Data taken from patent publication US9283242B2, “Uses of dihydro bases” (priority 2013, dated 2016).
“Also recorded” adds a separate entry of the source.

What was measured:
[1] = Phase I and II clinical trials; cited from earlier work
[2] = Variable temperature FTIR and 2D IR, tautomerism in aqueous solution; format: physicochemical; conditions: deuterated 0.5 M phosphate buffer pD 7.9, 10-80° C.
Procedure: For both 1D FTIR and 2D IR experiments, the H/D exchanged KP1212 was dissolved at a concentration of 20 mg/ml (88 mM) in 0.5 M phosphate buffer pD (pH reading in D2O) 7.9. About 25 μl of sample solution was sandwiched between two CaF2 windows separated by a 50 μm TEFLON spacer. Variable-temperature FTIR spectra were collected using Nicolet 380 FTIR spectrometer at 1.0 cm^−1 resolution with 16 scans per spectrum. Spectra for both the sample and the D2O were collected with the same procedure and the solvent spectra were subtracted from the sample spectra.
Absorptive 2D IR spectra were collected using a 2D IR spectrometer as described in detail previously (Chung, H. S., Khalil, M., Smith, A. W. & Tokmakoff, A. Transient two-dimensional IR spectrometer for probing nanosecond temperature-jump kinetics. Rev. Sci. Instrum. 78, 063101 (2007)). The relative polarizations of the pulses were set to be perpendicular (ZZYY). The waiting time (τ2) between the first two pulses and the third pulse was fixed at 150 fs. The coherence time between the first and the second pulse was scanned in 4 fs steps from −60 fs to 2.8 ps and 2.0 ps for rephasing and non-rephasing spectra, respectively. […]
2D IR spectroscopy is analogous to 2D NMR: sequences of ultrafast IR pulses are employed to excite molecular vibrations, and the energy flow from one vibration to others is then detected. […]

[3] = Mutagenesis model: base-pairing preference of tautomers combined with NMR tautomeric distribution; conditions: assuming imine geometric isomers present in equal proportions
Procedure: One of the fundamental assumptions in developing a mutagenesis model is that each KP1212 tautomer has a distinct base-pairing preference. To establish these preferences, in a relatively simple modeling exercise each tautomer was analyzed for its most probable base-pairing partner on the basis of hydrogen bonding. The primary criterion for correct base-pairing was formation of the maximum number of Watson-Crick type hydrogen bonds between the bases. Each type of hydrogen bond was considered to confer an equal stabilization energy. Configurations in which multiple base pairs had equal hydrogen bond numbers were considered equally probable. Since KP1212 is a cytosine (pyrimidine) analog, and the primary mutagenic events are A to G or G to A, our modeling exercise explored only purine-pyrimidine putative base pairs. Several KP1212 tautomers featured a canonical Watson-Crick face. Thus, tautomers enol-amino (1), enol-imino (2Z) and keto-amino (4) were predicted to pair with guanine, while keto-imino (5E) was predicted to pair with adenine (FIG. 19). The remaining tautomers could not adopt a canonical Watson-Crick face and therefore were hypothesized to pair in other geometries (i.e., wobble pairings, or syn-conformer pairings). […]

Compound: NC1=NC(=O)N([C@H]2C[C@H](O)[C@@H](CO)O2)CN1 [KP1212, 5-aza-5,6-dihydro-2′-deoxycytidine]
- safety in clinical trials [1]: safe
- tautomerism by FTIR and 2D IR [2]: multiple tautomeric forms; also recorded: different tautomeric forms
- model-predicted pairing with A [3]: ~20 % of the time
- model-predicted pairing with G [3]: ~80 % of the time
